Numbers after ± are expanded uncertainties.
Conditions: for surface tension liquid-gas: Ring tensiometer; for viscosity / electrical conductivity / mass density: 101.33 kPa, Liquid; for viscosity: Concentric cylinders viscometry; for electrical conductivity: Direct current cell with electrodes; for mass density: Vibrating tube method

SMILES	surface tension liquid-gas (298.15 K) [mN/m]	viscosity (298.15 K) [mPa·s]	electrical conductivity (298.15 K) [S/m]	mass density (298.15 K) [kg/m3]	surface tension liquid-gas (303.15 K) [mN/m]	viscosity (303.15 K) [mPa·s]	electrical conductivity (303.15 K) [S/m]	mass density (303.15 K) [kg/m3]	surface tension liquid-gas (313.15 K) [mN/m]	viscosity (313.15 K) [mPa·s]	electrical conductivity (313.15 K) [S/m]	mass density (313.15 K) [kg/m3]	surface tension liquid-gas (323.15 K) [mN/m]	viscosity (323.15 K) [mPa·s]	electrical conductivity (323.15 K) [S/m]	mass density (323.15 K) [kg/m3]	surface tension liquid-gas (333.15 K) [mN/m]	viscosity (333.15 K) [mPa·s]	electrical conductivity (333.15 K) [S/m]	mass density (333.15 K) [kg/m3]	other results
CC[N+](C)(C)CCOC.O=S(=O)([N-]S(=O)(=O)C(F)(F)F)C(F)(F)F	47.56 ± 0.85	59.39 ± 6	0.288 ± 0.04	1424.9 ± 1.8	47.32 ± 0.84	50.39 ± 5.1	0.315 ± 0.04	1420.5 ± 1.8	45.67 ± 0.82	30.59 ± 3.1	0.357 ± 0.04	1411 ± 1.8	44.86 ± 0.81	23.1 ± 2.3	0.395 ± 0.04	1401.5 ± 1.8	43.46 ± 0.8	18.3 ± 1.8	0.465 ± 0.04	1390.3 ± 1.8	surface tension liquid-gas (343.15 K): 42.23 ± 0.78 mN/m; viscosity (343.15 K): 15 ± 1.5 mPa·s; electrical conductivity (343.15 K): 0.551 ± 0.04 S/m; mass density (343.15 K): 1379.2 ± 1.7 kg/m3; surface tension liquid-gas (353.15 K): 40.44 ± 0.76 mN/m; viscosity (353.15 K): 13.2 ± 1.3 mPa·s; electrical conductivity (353.15 K): 0.633 ± 0.04 S/m; mass density (353.15 K): 1368.9 ± 1.7 kg/m3
COCC[N+]1(C)CCCCC1.O=S(=O)([N-]S(=O)(=O)C(F)(F)F)C(F)(F)F	44.65 ± 0.81	69.89 ± 7	0.209 ± 0.04	1433.2 ± 1.9	44.06 ± 0.8	55.79 ± 5.6	0.241 ± 0.04	1429 ± 1.9	43.2 ± 0.79	35.69 ± 3.6	0.287 ± 0.04	1419.8 ± 1.8	42.01 ± 0.78	26 ± 2.6	0.325 ± 0.04	1410.7 ± 1.8	40.98 ± 0.76	19.8 ± 2	0.396 ± 0.04	1401.7 ± 1.8	surface tension liquid-gas (343.15 K): 40.19 ± 0.75 mN/m; viscosity (343.15 K): 15.6 ± 1.6 mPa·s; electrical conductivity (343.15 K): 0.489 ± 0.04 S/m; mass density (343.15 K): 1392.5 ± 1.8 kg/m3; surface tension liquid-gas (353.15 K): 38.83 ± 0.74 mN/m; viscosity (353.15 K): 13.8 ± 1.4 mPa·s; electrical conductivity (353.15 K): 0.599 ± 0.04 S/m; mass density (353.15 K): 1383.3 ± 1.7 kg/m3
COCC[N+]1(C)CCCC1.O=S(=O)([N-]S(=O)(=O)C(F)(F)F)C(F)(F)F	49.22 ± 0.87	52.19 ± 5.2	0.345 ± 0.04	1453 ± 1.9	48.62 ± 0.86	46.49 ± 4.7	0.402 ± 0.04	1448.7 ± 1.9	47.34 ± 0.84	34.49 ± 3.5	0.48 ± 0.04	1439.3 ± 1.9	46.18 ± 0.83	25.79 ± 2.6	0.534 ± 0.04	1429.9 ± 1.9	45 ± 0.81	20.1 ± 2	0.59 ± 0.04	1420.7 ± 1.8	surface tension liquid-gas (343.15 K): 44.26 ± 0.81 mN/m; viscosity (343.15 K): 16.8 ± 1.7 mPa·s; electrical conductivity (343.15 K): 0.648 ± 0.04 S/m; mass density (343.15 K): 1411.2 ± 1.8 kg/m3; surface tension liquid-gas (353.15 K): 42.28 ± 0.78 mN/m; viscosity (353.15 K): 13.5 ± 1.4 mPa·s; electrical conductivity (353.15 K): 0.699 ± 0.04 S/m; mass density (353.15 K): 1401.9 ± 1.8 kg/m3
CCC[N+](C)(C)CC.O=S(=O)([N-]S(=O)(=O)C(F)(F)F)C(F)(F)F	46.56 ± 0.83	58.79 ± 5.9	0.248 ± 0.04	1403 ± 1.8	45.84 ± 0.83	53.39 ± 5.4	0.281 ± 0.04	1398.8 ± 1.8	44.92 ± 0.81	38.39 ± 3.9	0.325 ± 0.04	1389.8 ± 1.8	43.95 ± 0.8	28.49 ± 2.9	0.358 ± 0.04	1381 ± 1.7	43.34 ± 0.79	21.3 ± 2.1	0.414 ± 0.04	1372.1 ± 1.7	surface tension liquid-gas (343.15 K): 42.03 ± 0.78 mN/m; viscosity (343.15 K): 17.1 ± 1.7 mPa·s; electrical conductivity (343.15 K): 0.519 ± 0.04 S/m; mass density (343.15 K): 1362.4 ± 1.7 kg/m3; surface tension liquid-gas (353.15 K): 40.89 ± 0.76 mN/m; viscosity (353.15 K): 14.1 ± 1.4 mPa·s; electrical conductivity (353.15 K): 0.634 ± 0.04 S/m; mass density (353.15 K): 1352.7 ± 1.7 kg/m3
COCC[N+]1(C)CCOCC1.O=S(=O)([N-]S(=O)(=O)C(F)(F)F)C(F)(F)F	50.14 ± 0.88	257.6 ± 26	0.065 ± 0.04	1500.2 ± 2.1	49.3 ± 0.87	210.9 ± 22	0.079 ± 0.04	1495.7 ± 2	48.41 ± 0.86	127.2 ± 13	0.108 ± 0.04	1486.4 ± 2	47.64 ± 0.85	77.98 ± 7.9	0.136 ± 0.04	1477.2 ± 2	46.3 ± 0.83	51.89 ± 5.2	0.17 ± 0.04	1468 ± 2	surface tension liquid-gas (343.15 K): 45.36 ± 0.82 mN/m; viscosity (343.15 K): 37.49 ± 3.8 mPa·s; electrical conductivity (343.15 K): 0.257 ± 0.04 S/m; mass density (343.15 K): 1458.9 ± 1.9 kg/m3; surface tension liquid-gas (353.15 K): 44.74 ± 0.81 mN/m; viscosity (353.15 K): 27.59 ± 2.8 mPa·s; electrical conductivity (353.15 K): 0.334 ± 0.04 S/m; mass density (353.15 K): 1449.8 ± 1.9 kg/m3
